Biological target: T1, cIAP1 BIR3 domain (Homo sapiens, UniProt Q13490)
T1 construct: gene BIRC2; isolated purified BIR3 domain
Assay: fluorescence polarization assay
Conditions: read-out: cIAP1 BIR3 binding (Ki, nmol/l)
Excerpt: fluorescence polarization assay on cIAP1 BIR3 domain

T1 sequence (Q13490 260-352 limits assumed): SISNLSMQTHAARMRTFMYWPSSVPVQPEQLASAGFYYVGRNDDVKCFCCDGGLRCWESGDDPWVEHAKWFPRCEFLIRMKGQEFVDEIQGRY

Row | Ki | Compound
1 | ~1 nmol/L | CN[C@@H](C)C(=O)N[C@H](C(=O)N1C[C@@H](O)C[C@H]1Cc1c(-c2[nH]c3cc(F)ccc3c2C[C@@H]2C[C@H](O)CN2C(=O)[C@@H](NC(=O)[C@H](C)NC)C(C)(C)C)[nH]c2cc(F)ccc12)C(C)(C)C [B3]
2 | ~1 nmol/L | CC[C@H](NC(=O)[C@H](C)NC)C(=O)N1C[C@@H](O)C[C@H]1Cc1c[nH]c2cc(F)ccc12 [M1]
3 | ~1 nmol/L | CN[C@@H](C)C(=O)N[C@H](C(=O)N1C[C@@H](O)C[C@H]1Cc1c[nH]c2cc(F)ccc12)C(C)(C)C [M3]
4 | ~1 nmol/L | CN[C@@H](C)C(=O)N[C@H](C(=O)N1C[C@@H](O)C[C@H]1Cc1c[nH]c2cc(F)ccc12)[C@@H](C)OC [M2]
5 | ~1 nmol/L | CN[C@@H](C)C(=O)N[C@H](C(=O)N1C[C@@H](O)C[C@H]1Cc1c(-c2[nH]c3cc(F)ccc3c2C[C@@H]2C[C@H](O)CN2C(=O)[C@@H](NC(=O)[C@H](C)NC)[C@@H](C)OC)[nH]c2cc(F)ccc12)[C@@H](C)OC [B2]
